The supplement of paper PMC10307832

Experiments:
Venetoclax + Foretinib = compound: CC1(C)CCC(CN2CCN(c3ccc(C(=O)NS(=O)(=O)c4ccc(NCC5CCOCC5)c([N+](=O)[O-])c4)c(Oc4cnc5[nH]ccc5c4)c3)CC2)=C(c2ccc(Cl)cc2)C1 [Venetoclax] + COc1cc2c(Oc3ccc(NC(=O)C4(C(=O)Nc5ccc(F)cc5)CC4)cc3F)ccnc2cc1OCCCN1CCOCC1 [Foretinib] (partner 0.25 µM); assay: relative viability (nuclei count vs DMSO), 5 days (fraction); higher = more cells survive
Outline: (§1)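 Lung cancer cell lines in 1536-well plates were dosed by pin tool the day after seeding, either with one drug alone or with a fixed anchor-drug dose plus five library-drug doses (not always all listed) in √10 steps. After 5 days, cells were fixed and their nuclei stained in one step (final 0.05% Triton X-100, 1% formaldehyde, 1 ug/ml Hoechst), then counted on 4× images. Relative viability is the nuclei count in treated wells divided by that in vehicle wells. Values are medians of duplicate plates.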

Selumetinib + Tozasertib = compound: Cn1cnc2c(F)c(Nc3ccc(Br)cc3Cl)c(C(=O)NOCCO)cc21 [Selumetinib] + Cc1cc(Nc2cc(N3CCN(C)CC3)nc(Sc3ccc(NC(=O)C4CC4)cc3)n2)n[nH]1 [Tozasertib] (partner 0.1 µM); assay: as above
Outline: as §1

| Cell Line | relative viability (Venetoclax + Foretinib; first compound 0.01 µM) | relative viability (Venetoclax + Foretinib; first compound 0.03162 µM) | relative viability (Venetoclax + Foretinib; first compound 0.1 µM) | relative viability (Venetoclax + Foretinib; first compound 0.3162 µM) | relative viability (Venetoclax + Foretinib; first compound 1 µM) | relative viability (Selumetinib + Tozasertib; first compound 0.02 µM) | relative viability (Selumetinib + Tozasertib; first compound 0.06325 µM) | relative viability (Selumetinib + Tozasertib; first compound 0.2 µM) | relative viability (Selumetinib + Tozasertib; first compound 0.6325 µM) |
| --- | --- | --- | --- | --- | --- | --- | --- | --- | --- |
| ABC-1 | 0.867 | 1.22 | 0.976 | 0.961 | 0.922 | 0.161 | 0.157 | 0.139 | 0.135 |
| LOU-NH91 | 0.895 | 0.969 | 0.97 | 0.94 | 0.911 | 0.648 | 0.679 | 0.606 | 0.534 |
| NCI-H520 | 0.628 | 0.708 | 0.711 | 0.949 | 0.727 | 0.477 | 0.435 | 0.461 | 0.52 |
| H3255 | 0.835 | 1 | 0.865 | 0.893 | 0.788 | 0.624 | 0.687 | 0.74 | 0.556 |
